The text below walks through data of patent publication US8592629B2, “Sulfonamide derivatives as Nav 1.7 inhibitors” (Pfizer Limited, priority 2010, dated 2013).

The test deals with T1, Nav1.7 (or SCN9A) channel (Homo sapiens, UniProt Q15858).
T1 construct: expressed in transfected cells
The test is described as follows: Nav1.7 (hSCN9A) block in HEK cells, PatchXpress 7000 automated electrophysiology, estimated IC50 (EIC50). Type of test: cell-based. Particulars: PatchXpress assay; HEK cells stably transfected with hSCN9A, voltage-clamped at V1/2 of inactivation. Here is the method:
The ability of the compounds of formula (I) to block the Nav1.7 (or SCN9A) channel were measured using the assay described below.
Human Embryonic Kidney (HEK) cells were transfected with an hSCN9A construct using lipofectamine reagent (Invitrogen), using standard techniques. Cells stably expressing the hSCN9A constructs were identified by their resistance to G-418 (400 μg/ml). Clones were screened for expression using the whole-cell voltage-clamp technique.
HEK cells stably transfected with hSCN9A were maintained in DMEM medium supplemented with 10% heat-inactivated fetal bovine serum and 400 μg/ml G-418 in an incubator at 37° C. with a humidified atmosphere of 10% CO2. For HTS, cells were harvested from flasks by trypsinization and replated in an appropriate multi-well plate (typically 96 or 384 wells/plate) such that confluence would be achieved within 24 hours of plating. For electrophysiological studies, cells were removed from the culture flask by brief trypsinization and re-plated at low density onto glass cover slips. Cells were typically used for electrophysiological experiments within 24 to 72 hours after plating.
HEK cells stably transfected with hSCN9A were viewed under Hoffman contrast optics and placed in front of an array of flow pipes emitting either control or compound-containing extracellular solutions. All compounds were dissolved in dimethyl sulfoxide to make 10 mM stock solutions, which were then diluted into extracellular solution to attain the final concentrations desired. […] The voltage-dependence of inactivation was determined by applying a series of depolarizing prepulses (8 sec long in 10 mV increments) from a negative holding potential. The voltage was then immediately stepped to 0 mV to assess the magnitude of the sodium current. Currents elicited at 0 mV were plotted as a function of prepulse potential to allow estimation of the voltage at which 50% of the channels were inactivated (midpoint of inactivation or V1/2). Compounds were tested for their ability to inhibit hSCN9A sodium channels by activating the channel with a 20 msec voltage step to 0 mV following an 8 second conditioning prepulse to the empirically determined V1/2. Compound effect (% inhibition) was determined by difference in current amplitude before and after application of test compounds. For ease of comparison, “estimated IC-50” (EIC50) values were calculated from single point electrophysiology data by the following equation, (tested concentration, uM) X (100-% inhibition/% inhibition). Inhibition values <20% and >80% were excluded from the calculation.
Electrophysiological assays were conducted with PatchXpress 7000 hardware and associated software (Molecular Devices Corp). All assay buffers and solutions were identical to those used in conventional whole-cell voltage clamp experiments described above. hSCN9A cells were grown as above to 50%-80% confluency and harvested by trypsinization. Trypsinized cells were washed and resuspended in extracellular buffer at a concentration of 1×10^6 cells/ml. The onboard liquid handling facility of the PatchXpress was used for dispensing cells and application of test compounds. Determination of the voltage midpoint of inactivation was as described for conventional whole-cell recordings. Cells were then voltage-clamped to the empirically determined V1/2 and current was activated by a 20 msec voltage step to 0 mV.
Compounds of the Examples were tested in the assays described above and found to have the Nav1.7 EIC50 (μM) values specified in the table below. All data are derived from the PatchXpress assay unless explicitly stated otherwise.

T1 sequence (Q15858 whole entry): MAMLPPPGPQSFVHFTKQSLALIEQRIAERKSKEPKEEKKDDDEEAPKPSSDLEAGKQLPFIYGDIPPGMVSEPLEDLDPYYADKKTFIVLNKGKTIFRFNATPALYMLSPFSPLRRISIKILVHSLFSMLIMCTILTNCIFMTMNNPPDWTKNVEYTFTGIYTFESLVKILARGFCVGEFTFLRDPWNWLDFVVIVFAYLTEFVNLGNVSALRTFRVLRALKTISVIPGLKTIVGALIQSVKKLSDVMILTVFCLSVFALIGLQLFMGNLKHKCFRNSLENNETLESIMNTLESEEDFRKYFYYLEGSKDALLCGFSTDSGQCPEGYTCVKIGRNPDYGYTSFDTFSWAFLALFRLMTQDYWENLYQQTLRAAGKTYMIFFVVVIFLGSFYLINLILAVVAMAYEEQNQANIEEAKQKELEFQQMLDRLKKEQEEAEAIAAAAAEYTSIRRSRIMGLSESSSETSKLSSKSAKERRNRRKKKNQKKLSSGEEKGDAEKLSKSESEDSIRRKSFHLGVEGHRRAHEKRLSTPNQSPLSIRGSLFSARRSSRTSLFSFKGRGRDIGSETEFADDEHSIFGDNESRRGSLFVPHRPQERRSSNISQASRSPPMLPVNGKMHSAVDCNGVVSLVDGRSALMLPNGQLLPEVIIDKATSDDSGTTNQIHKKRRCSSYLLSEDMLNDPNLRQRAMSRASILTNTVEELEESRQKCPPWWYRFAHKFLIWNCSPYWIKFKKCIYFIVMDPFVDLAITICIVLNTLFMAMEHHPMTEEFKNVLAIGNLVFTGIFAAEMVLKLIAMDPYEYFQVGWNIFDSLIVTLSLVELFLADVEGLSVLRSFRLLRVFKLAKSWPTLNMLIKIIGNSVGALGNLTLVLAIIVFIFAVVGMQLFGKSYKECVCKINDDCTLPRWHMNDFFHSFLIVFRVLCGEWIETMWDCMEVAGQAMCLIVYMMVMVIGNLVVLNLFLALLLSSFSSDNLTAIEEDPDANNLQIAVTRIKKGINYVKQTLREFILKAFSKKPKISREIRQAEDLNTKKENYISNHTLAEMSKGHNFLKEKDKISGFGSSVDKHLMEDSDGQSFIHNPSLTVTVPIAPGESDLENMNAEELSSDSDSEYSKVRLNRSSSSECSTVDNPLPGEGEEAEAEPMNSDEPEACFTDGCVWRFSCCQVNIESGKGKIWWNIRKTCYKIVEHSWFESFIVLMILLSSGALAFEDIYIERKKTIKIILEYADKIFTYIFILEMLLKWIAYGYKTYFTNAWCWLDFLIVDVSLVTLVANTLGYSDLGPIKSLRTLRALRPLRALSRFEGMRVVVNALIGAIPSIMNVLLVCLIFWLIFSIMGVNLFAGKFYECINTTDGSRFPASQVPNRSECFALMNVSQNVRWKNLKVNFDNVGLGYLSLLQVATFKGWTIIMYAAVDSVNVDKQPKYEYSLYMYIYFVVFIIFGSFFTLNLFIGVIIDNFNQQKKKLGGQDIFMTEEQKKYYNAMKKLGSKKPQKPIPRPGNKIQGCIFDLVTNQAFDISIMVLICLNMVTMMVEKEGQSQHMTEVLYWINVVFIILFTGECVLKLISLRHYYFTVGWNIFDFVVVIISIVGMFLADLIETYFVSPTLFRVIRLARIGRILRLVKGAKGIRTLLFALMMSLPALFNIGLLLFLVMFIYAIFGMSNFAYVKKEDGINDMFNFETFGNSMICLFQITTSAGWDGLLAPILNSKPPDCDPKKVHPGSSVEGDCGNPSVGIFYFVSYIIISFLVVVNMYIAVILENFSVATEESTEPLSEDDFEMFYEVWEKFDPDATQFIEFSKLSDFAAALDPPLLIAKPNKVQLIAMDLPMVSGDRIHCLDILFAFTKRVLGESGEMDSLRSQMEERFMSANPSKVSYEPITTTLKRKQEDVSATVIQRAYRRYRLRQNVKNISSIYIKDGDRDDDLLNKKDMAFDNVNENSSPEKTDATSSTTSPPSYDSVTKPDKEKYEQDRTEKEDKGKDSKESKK

What is called IC50 is the concentration at which inhibition is half-maximal. In the case of `CS(=O)(=O)NC(=O)c1cc(F)c(Oc2cnc(OCCC(F)(F)F)c(Cl)c2)cc1F` [Example 62, 4-{[5-chloro-6-(3,3,3-trifluoropropoxy)pyridin-3-yl]oxy}-2,5-difluoro-N-(methylsulfonyl)benzamide], the IC50 is 240 nM.
In the case of `CC(C)(F)COc1ncc(Oc2cc(F)c(C(=O)NS(C)(=O)=O)cc2F)cc1Cl` [Example 63, 4-{[5-chloro-6-(2-fluoro-2-methylpropoxy)pyridin-3-yl]oxy}-2,5-difluoro-N-(methylsulfonyl)benzamide], the IC50 is 160 nM.
As for `CS(=O)(=O)NC(=O)c1cc(F)c(Oc2cnc(OCC(F)(F)C(F)(F)F)c(Cl)c2)cc1F` [Example 64, 4-{[5-chloro-6-(2,2,3,3,3-pentafluoropropoxy)pyridin-3-yl]oxy}-2,5-difluoro-N-(methylsulfonyl)benzamide], the figure is 28 nM.
As for `CS(=O)(=O)NC(=O)c1cc(F)c(Oc2cnc(OC3CCC(F)(F)CC3)c(Cl)c2)cc1F` [Example 65, 4-({5-chloro-6-[(4,4-difluorocyclohexyl)oxy]pyridin-3-yl}oxy)-2,5-difluoro-N-(methylsulfonyl)benzamide], the figure is 650 nM.
In the case of `CS(=O)(=O)NC(=O)c1cc(F)c(Oc2cnc(OCC(F)F)c(Cl)c2)cc1F` [Example 66, 4-{[5-chloro-6-(2,2-difluoroethoxy)pyridin-3-yl]oxy}-2,5-difluoro-N-(methylsulfonyl)benzamide], the IC50 is 650 nM.
The same measure for `CN1CCC(Oc2ncc(Oc3cc(F)c(C(=O)NS(C)(=O)=O)cc3F)cc2Cl)CC1` [Example 67, 4-({5-chloro-6-[(1-methylpiperidin-4-yl)oxy]pyridin-3-yl}oxy)-2,5-difluoro-N-(methylsulfonyl)benzamide]: 9900 nM.
As for `CS(=O)(=O)NC(=O)c1cc(F)c(Oc2cnc(C(F)(F)F)c(Cl)c2)cc1F` [Example 68, 4-{[5-chloro-6-(trifluoromethyl)pyridin-3-yl]oxy}-2,5-difluoro-N-(methylsulfonyl)benzamide], the figure is 1800 nM; as for `COc1cc(C(=O)NS(C)(=O)=O)ccc1Oc1cnc(OC(C)C)c(Cl)c1` [Example 69, 4-[(5-chloro-6-isopropoxypyridin-3-yl)oxy]-3-methoxy-N-(methylsulfonyl)benzamide], 250 nM.
The same measure for `CC(C)Oc1ncc(Oc2cc(F)c(C(=O)NS(C)(=O)=O)cc2F)cc1F` [Example 71, 2,5-difluoro-4-[(5-fluoro-6-isopropoxypyridin-3-yl)oxy]-N-(methylsulfonyl)benzamide]: 1700 nM; for `COc1c(F)c(Oc2cnc(OC(C)C)c(Cl)c2)cc(F)c1C(=O)NS(C)(=O)=O` [Example 72, 4-[(5-chloro-6-isopropoxypyridin-3-yl)oxy]-3,6-difluoro-2-methoxy-N-(methylsulfonyl)benzamide]: over 1000 nM; for `CC(C)Oc1ncc(Oc2ccc(C(=O)NS(C)(=O)=O)cc2C#N)cc1Cl` [Example 73, 4-[(5-chloro-6-isopropoxypyridin-3-yl)oxy]-3-cyano-N-(methylsulfonyl)benzamide]: 620 nM.
Regarding `CC(C)COc1ncc(Oc2ccc(C(=O)NS(C)(=O)=O)c(F)c2)cc1Cl` [Example 74, 4-[(5-chloro-6-isobutoxypyridin-3-yl)oxy]-2-fluoro-N-(methylsulfonyl)benzamide], the IC50 was 50 nM.
Regarding `CC(C)(Oc1ncc(Oc2cc(F)c(C(=O)NS(C)(=O)=O)cc2Cl)cc1Cl)C(F)(F)F` [Example 76, 5-chloro-4-{[5-chloro-6-(2,2,2-trifluoro-1,1-dimethylethoxy)pyridin-3-yl]oxy}-2-fluoro-N-(methylsulfonyl)benzamide], the IC50 was 9.4 nM.
Consider `CS(=O)(=O)NC(=O)c1cc(Cl)c(Oc2cnc(OC(C(F)(F)F)C(F)(F)F)c(Cl)c2)cc1F` [Example 77, 5-chloro-4-({5-chloro-6-[2,2,2-trifluoro-1-(trifluoromethyl)ethoxy]pyridin-3-yl}oxy)-2-fluoro-N-(methylsulfonyl)benzamide], for which the IC50 is 15 nM.
`CC(C)Nc1ncc(Oc2cc(F)c(C(=O)NS(C)(=O)=O)cc2F)cc1Cl` [Example 79, 4-{[5-chloro-6-(isopropylamino)pyridin-3-yl]oxy}-2,5-difluoro-N-(methylsulfonyl)benzamide]: the IC50 is 150 nM.
The same measure for `CS(=O)(=O)NC(=O)c1cc(F)c(Oc2cnc(OC(CF)CF)c(Cl)c2)cc1F` [Example 80, 4-({5-chloro-6-[2-fluoro-1-(fluoromethyl)ethoxy]pyridin-3-yl}oxy)-2,5-difluoro-N-(methylsulfonyl)benzamide]: 1500 nM.
For `CC(C)Oc1ncc(Oc2ccc(C(=O)NS(C)(=O)=O)cc2Cl)cc1Cl` [Example 82, 3-chloro-4-[(5-chloro-6-isopropoxypyridin-3-yl)oxy]-N-(methylsulfonyl)benzamide], the IC50 was 42 nM.
As for `COc1ncc(Oc2ccc(C(=O)NS(C)(=O)=O)cc2Cl)cc1Cl` [Example 83, 3-chloro-4-[(5-chloro-6-methoxypyridin-3-yl)oxy]-N-(methylsulfonyl)benzamide], the figure is over 10000 nM; as for `CC(C)Oc1ncc(Oc2ccc(C(=O)NS(C)(=O)=O)cc2)cc1Cl` [Example 84, 4-[(5-chloro-6-isopropoxypyridin-3-yl)oxy]-N-(methylsulfonyl)benzamide], 850 nM.
As for `COc1ncc(Oc2ccc(C(=O)NS(C)(=O)=O)cc2)cc1Cl` [Example 85, 4-[(5-chloro-6-methoxypyridin-3-yl)oxy]-N-(methylsulfonyl)benzamide], the figure is over 10000 nM; as for `COc1cc(Oc2cnc(OC(C)C)c(Cl)c2)ccc1C(=O)NS(C)(=O)=O` [Example 86, 4-[(5-chloro-6-isopropoxypyridin-3-yl)oxy]-2-methoxy-N-(methylsulfonyl)benzamide], 7200 nM.
As for `CS(=O)(=O)NC(=O)c1cc(F)c(Oc2ccc(Cl)c3cccnc23)cc1F` [Example 87, 4-[(5-chloroquinolin-8-yl)oxy]-2,5-difluoro-N-(methylsulfonyl)benzamide], the figure is over 3000 nM; as for `CS(=O)(=O)NC(=O)c1cc(F)c(Oc2cc(Cl)cc3cccnc23)cc1F` [Example 88, 4-[(6-chloroquinolin-8-yl)oxy]-2,5-difluoro-N-(methylsulfonyl)benzamide], over 3000 nM; as for `COc1ccncc1Oc1cc(F)c(C(=O)NS(C)(=O)=O)cc1F` [Example 89, 2,5-difluoro-4-(4-methoxypyridin-3-yloxy)-N-(methylsulfonyl)benzamide], over 3000 nM.
Consider `CS(=O)(=O)NC(=O)c1cc(F)c(Oc2cccn3ccnc23)cc1F` [Example 90, 2,5-difluoro-4-(imidazo[1,2-a]pyridin-8-yloxy)-N-(methylsulfonyl)benzamide], for which the IC50 was over 3000 nM.
The same measure for `CS(=O)(=O)NC(=O)c1cc(Cl)c(Oc2cnc(C3CC3)c(Cl)c2)cc1Cl` [Example 91, 2,5-Dichloro-4-(5-chloro-6-cyclopropylpyridin-3-yloxy)-N-(methylsulfonyl)benzamide]: 680 nM.
As for `O=C(NS(=O)(=O)C1CC1)c1cc(Cl)c(Oc2cnc(C3CC3)c(Cl)c2)cc1F` [Example 92, 5-chloro-4-(5-chloro-6-cyclopropylpyridin-3-yloxy)-N-(cyclopropylsulfonyl)-2-fluorobenzamide], the figure is 50 nM; as for `CS(=O)(=O)NC(=O)c1cc(Cl)c(Cc2cnc(C3CC3)c(Cl)c2)cc1F` [Example 93, 5-chloro-4-((5-chloro-6-cyclopropylpyridin-3-yl)methyl)-2-fluoro-N-(methylsulfonyl)benzamide], 470 nM; as for `CC(C)Oc1ncc(Sc2cc(F)c(C(=O)NS(C)(=O)=O)cc2Cl)cc1Cl` [Example 94, 5-chloro-4-[(5-chloro-6-isopropoxypyridin-3-yl)thio]-2-fluoro-N-(methylsulfonyl)benzamide], 830 nM.
The same measure for `CS(=O)(=O)NC(=O)c1cc(Cl)c(Oc2cnc(N3CCC(F)(F)C3)c(Cl)c2)cc1F` [Example 95, 5-chloro-4-(5-chloro-6-(3,3-difluoropyrrolidin-1-yl)pyridin-3-yloxy)-2-fluoro-N-(methylsulfonyl)benzamide]: 37 nM.
